Here are results for three molecules from EP0745595A1, “3-(3-Aryloxyphenyl)-1-(substituted methyl)-s-triazine-2,4,6-oxo or thiotrione herbicidal agents” (American Cyanamid Company, priority 1995, dated 1996).

Format in all cases: in vivo
For series [1], the system named is CYPERUS SEROTINUS, ROTTB. The series can be described thus: Preemergence weed control under flooded paddy conditions, CYPSE (Flatsedge). Conditions: preemergence, 3-4 weeks after treatment. Put shortly:
(§1)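 In undrained pots of silt loam flooded to 1.5-3 cm, compounds are pipetted into the water before emergence at the equivalent of about 0.5, 0.25, 0.125 and 0.063 kg/ha. Plants are scored 0-9 for stand, vigor, malformation, size and chlorosis at test end (3-4 weeks).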

A further series deals with CASSIA OBTUSIFOLIA, L. Briefly: Preemergence herbicidal evaluation, CASOB (Sicklepod). The conditions noted are these: rated four to five weeks after treatment. From the text: (§2) Results of herbicide evaluation are expressed on a rating scale (0-9). The scale is based upon a visual observation of plant stand, vigor, malformation, size, chlorosis and overall plant appearance as compared with a control.
(§3) The preemergence herbicidal activity of the test compounds of the present invention is exemplified by the following tests in which the seeds of a variety of monocotyledonous and dicotyledonous plants are separately mixed with potting soil and planted on top of approximately one inch of soil in separate pint cups. […] The treated cups are then placed on greenhouse benches, watered and cared for in accordance with conventional greenhouse procedures. From four to five weeks after treatment, the tests are terminated and each cup is examined and rated according to the rating system provided in Example 40.
(§4) The compounds evaluated are reported by compound number given in Example 40.

For the next series, the system named is SAGITTARIA PYGMAEA, L. Briefly: Preemergence weed control under flooded paddy conditions, SAGPY (Arrowhead (Pygmaea)). The conditions noted are these: preemergence, 3-4 weeks after treatment. Put shortly:
as §1

Series [2] has as its system ORYZA SATIVA, L. TEBONNET
The series can be described thus: Rice tolerance to post-transplant applications under flooded paddy conditions, ORYSAT (Rice, Tebonnet).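 For ORYSAT herbicidal rating (rice tolerance): applied to flooded soil surface three days after transplanting.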 The conditions noted are these: post-transplant rice; for Herbicidal effect rating, ORYSAT: 3-4 weeks after treatment; for ORYSAT herbicidal rating (rice tolerance): rated three to four weeks after treatment. In a few lines:
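Greenhouse pots of silt loam, each with two transplanted ten-day-old seedlings, are held under 1.5 to 3 cm of standing water. Three days later the compound is applied to the flooded surface at about 0.5, 0.25, 0.125 or 0.063 kg/ha. Damage is scored visually 0-9 after 3-4 weeks.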

In another series the test system is ZEA MAYS L. Briefly: Preemergence herbicidal evaluation, ZEAMX (Corn, Field). The conditions noted are these: rated four to five weeks after treatment.
From the text: as §2, §3, §4

Series [3] concerns GLYCINE MAX(L) MERR. CV. WILLIAMS
The series can be described thus: Preemergence herbicidal evaluation, GLXMAW (Soybean, Williams). The conditions noted are these: rated four to five weeks after treatment.
From the text: as §2, §3, §4

The test system of series [4] is CHENOPODIUM ALBUM, L. Briefly: Preemergence herbicidal evaluation, CHEAL (Lambsquarters, Common). The conditions noted are these: for CHEAL herbicidal rating: rated four to five weeks after treatment; for CHEAL rating: four to five weeks after treatment. Put shortly: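 Seeds sown in potting soil cups, then sprayed preemergence with aqueous acetone compound solution at about 0.125 to 0.50 kg per hectare. Greenhouse-grown, rated 4–5 weeks after treatment on a 0–9 visual scale against control.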

In the next series the test system is IPOMOEA SPP. Briefly: Preemergence herbicidal evaluation, IPOSS (Morningglory spp.). The conditions noted are these: rated four to five weeks after treatment.
From the text: as §2, §3, §4

Series [5] deals with ECHINOCHLOA CRUS-GALLI, (L) BEAU. The series can be described thus: Preemergence herbicidal evaluation, ECHCG (Barnyardgrass). Conditions: rated four to five weeks after treatment. Put shortly:
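In this preemergence herbicide test, cups holding seeds of ECHCG sown in potting soil over roughly one inch of soil were treated and then grown under conventional greenhouse care. Tests were ended four to five weeks after treatment, and injury was scored 0-9 from stand, vigor, malformation, size, chlorosis and overall appearance relative to a control.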

In series [6] the test system is ECHINOCHLOA ORYZOIDES (ARD.)FRITSCH. The series can be described thus: Preemergence weed control under flooded paddy conditions, ECHORC (Watergrass (Calif.)). Conditions: for Herbicidal effect rating, ECHORC: preemergence, 3-4 weeks after treatment; for ECHORC herbicidal rating: preemergence weeds, rated three to four weeks after treatment. In a few lines: as §1
Series [7] relates to SETARIA VIRIDIS, (L) BEAU. The series can be described thus: Postemergence herbicidal evaluation, SETVI (Foxtail, Green). More on the design: key to SETVI rating / Herbicidal effect rating, SETVI / SETVI: 0-9 visual rating scale vs untreated control. In a few lines: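 Spray: acetone/water 50/50 + 0.5% TWEEN 20; rate ~0.125–0.500 kg/ha; nozzle 40 psi; ~2-wk seedlings. Read: visual 0–9 rating at 4–5 wk post-treatment vs control; replicate tests averaged.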

The test system of the next series is […], PRESL. Briefly: Preemergence weed control under flooded paddy conditions, MOOVA (Monochoria). The conditions noted are these: for Herbicidal effect rating, MOOVA: preemergence, 3-4 weeks after treatment; for MOOVA herbicidal rating: preemergence weeds, rated three to four weeks after treatment. In a few lines: as §1
For series [8], the system named is TRITICUM AESTIVUM, CV. APOLLO. The series can be described thus: Preemergence herbicidal evaluation, TRZAWO (Wheat, Winter, CV. APOLLO). Conditions: rated four to five weeks after treatment.
From the text: as §2, §3, §4

The test system of series [9] is CHENOPODIUM ALBUM, L. Briefly: Postemergence herbicidal evaluation, CHEAL (Lambsquarters, Common). The conditions noted are these: rated four to five weeks after treatment, averaged. Put shortly: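 Postemergence herbicidal activity on Chenopodium album was tested by spraying two-week-old seedlings grown in jiffy flats with compound in acetone/water (50/50) plus 0.5% TWEEN®20, using a 40 psi nozzle. Four to five weeks after treatment, stand, vigor, malformation, size, chlorosis and overall appearance were scored 0-9 relative to controls, with repeat tests averaged.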

Series [10] concerns AMBROSIA ARTEMISIIFOLIA, L. The series can be described thus: Preemergence herbicidal evaluation, AMBEL (Ragweed, Common). The conditions noted are these: four to five weeks after treatment.
From the text: as §2, §3, §4

In series [11] the test system is ABUTILON THEOPHRASTI, MEDIC. Briefly: Postemergence herbicidal evaluation, ABUTH (Velvetleaf). The conditions noted are these: rated four to five weeks after treatment, averaged. Put shortly: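 This postemergence herbicide test used two-week-old velvetleaf seedlings grown in jiffy flats. Each compound was sprayed at 40 psi as a dispersion in 50/50 acetone/water with 0.5% TWEEN®20 surfactant. Plants then received routine greenhouse care. After four to five weeks, injury was scored visually on a 0-9 scale against a control, and replicate tests were averaged.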

A further series deals with CYPERUS IRIA. Briefly: Preemergence weed control under flooded paddy conditions, CYPIR (Rice Flatsedge). Conditions: preemergence weeds, rated three to four weeks after treatment. In a few lines: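 This preemergence test mimicked flooded paddy conditions: rice flatsedge propagules were sown in the upper 0.5 cm of silt loam in undrained 32 oz. containers (10.5 cm diameter), with water held 1.5 to 3 cm over the soil. After normal greenhouse care, plants were scored 0-9 for stand, vigor, malformation, size, chlorosis and appearance relative to controls.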

`Cn1c(=O)n(CC(N)=O)c(=O)n(-c2cc(Oc3ncc(C(F)(F)F)cc3Cl)ccc2Br)c1=O` [Compound 42]: the “Herbicidal effect rating, CYPSE” value in series [1] (0.250 kg/ha) and in [1] (0.500 kg/ha) was 0.0 throughout. The CASOB herbicidal rating in the series on CASSIA OBTUSIFOLIA, L. (Rate 0.125 kg/ha) is listed as 0.0; with CASSIA OBTUSIFOLIA, L. (Rate 0.250 kg/ha) it was 0.0; in the series on CASSIA OBTUSIFOLIA, L. (Rate 0.500 kg/ha), 0.0. The “Herbicidal effect rating, SAGPY” value was determined as 0.0 with SAGITTARIA PYGMAEA, L. (0.250 kg/ha) and 0.0 in the series on SAGITTARIA PYGMAEA, L. (0.500 kg/ha). Besides, the “Herbicidal effect rating, ORYSAT” value amounted to 1.0 in [2] (0.250 kg/ha) and 2.0 in series [2] (0.500 kg/ha). Further, the ZEAMX herbicidal rating in the series with ZEA MAYS L. (Rate 0.125 kg/ha), in the series on ZEA MAYS L. (Rate 0.250 kg/ha) and with ZEA MAYS L. (Rate 0.500 kg/ha) was 0.0 each time. The GLXMAW herbicidal rating in [3] (Rate 0.125 kg/ha), in series [3] (Rate 0.250 kg/ha) and in [3] (Rate 0.500 kg/ha) was 0.0 each time. For the same molecule, the CHEAL herbicidal rating in the series with CHENOPODIUM ALBUM, L. [4] (Rate 0.125 kg/ha) came to 9.0; in the series with CHENOPODIUM ALBUM, L. [4] (Rate 0.250 kg/ha), 9.0; in the series with CHENOPODIUM ALBUM, L. [4] (Rate 0.500 kg/ha) it was 9.0. In addition, the IPOSS herbicidal rating in the series on IPOMOEA SPP. (Rate 0.125 kg/ha), in the series on IPOMOEA SPP. (Rate 0.250 kg/ha) and in the series with IPOMOEA SPP. (Rate 0.500 kg/ha) was 0.0 each time. The ECHCG herbicidal rating in [5] (Rate 0.125 kg/ha), in series [5] (Rate 0.250 kg/ha) and in series [5] (Rate 0.500 kg/ha) was 0.0 in each case. Further, the “Herbicidal effect rating, ECHORC” value in [6] (0.250 kg/ha) and in series [6] (0.500 kg/ha) was 0.0 throughout. The SETVI rating in series [7] (Rate 0.125 kg/ha), in [7] (Rate 0.250 kg/ha) and in [7] (Rate 0.500 kg/ha) was 1.0 in each case. Further, the “Herbicidal effect rating, MOOVA” value in […], PRESL. (0.250 kg/ha) is reported as 0.0; in series […], PRESL. (0.500 kg/ha), 0.0.

In the case of `COC(=O)Cn1c(=O)n(C)c(=O)n(-c2cc(Oc3ccc(Cl)cc3Cl)ccc2Br)c1=O` [Compound 43, Methyl 3-[2-bromo-5-(2,4-dichlorophenoxy)-phenyl]tetrahydro-5-methyl-2,4,6-trioxo-s-triazine-1(2H)-acetate], the “Herbicidal effect rating, ORYSAT” value in series [2] (0.063 kg/ha) came to 2.0; in [2] (0.125 kg/ha) it was 3.0; in series [2] (0.250 kg/ha), 4.0; in series [2] (0.500 kg/ha), 4.0. Further, the CHEAL herbicidal rating was found to be 9.0 in the series on CHENOPODIUM ALBUM, L. [4] (Rate 0.125 kg/ha); 9.0 in the series with CHENOPODIUM ALBUM, L. [4] (Rate 0.250 kg/ha); 9.0 with CHENOPODIUM ALBUM, L. [4] (Rate 0.500 kg/ha). Moreover, the “Herbicidal effect rating, ECHORC” value in series [6] (0.063 kg/ha), in [6] (0.125 kg/ha), in series [6] (0.250 kg/ha) and in series [6] (0.500 kg/ha) was 9.0 in each case. Besides, the TRZAWO herbicidal rating in [8] (Rate 0.125 kg/ha), in [8] (Rate 0.250 kg/ha) and in series [8] (Rate 0.500 kg/ha) was 0.5 each time.

Turning to `COC(=O)C(C)n1c(=O)n(C)c(=O)n(-c2cc(Oc3c(F)cc(C(F)(F)F)cc3Cl)ccc2Br)c1=O` (stereo not drawn) [Compound 1, Methyl 3-{2-bromo-5-[(2-chloro-α,α,α,6-tetrafluoro-p-tolyl)oxy]phenyl}tetrahydro-α,5-dimethyl-2,4,6-trioxo-s-triazine-1(2H)-acetate], the “CHEAL, herbicide rating (0-9)” value in the series on CHENOPODIUM ALBUM, L. [9] (Rate 0.125 kg/ha) came out at 9.0; in the series with CHENOPODIUM ALBUM, L. [9] (Rate 0.250 kg/ha), 9.0; in the series with CHENOPODIUM ALBUM, L. [9] (Rate 0.500 kg/ha), 9.0. Also, the entries for the “ORYSAT herbicidal rating (rice tolerance)” value in [2] (Rate 0.125 kg/ha), in series [2] (Rate 0.250 kg/ha) and in [2] (Rate 0.500 kg/ha) were 1.0, 2.0 and 3.0, respectively. Besides, the CHEAL rating in the series on CHENOPODIUM ALBUM, L. [4] (Rate 0.125 kg/ha) is reported as 9.0; in the series on CHENOPODIUM ALBUM, L. [4] (Rate 0.250 kg/ha), 9.0; with CHENOPODIUM ALBUM, L. [4] (Rate 0.500 kg/ha), 9.0. Moreover, the AMBEL rating in series [10] (Rate 0.125 kg/ha), in series [10] (Rate 0.250 kg/ha) and in [10] (Rate 0.500 kg/ha) was 0.0 in each case. Also, the ECHORC herbicidal rating in [6] (Rate 0.125 kg/ha), in [6] (Rate 0.250 kg/ha) and in series [6] (Rate 0.500 kg/ha) was 9.0 each time. Moreover, the “ABUTH, herbicide rating (0-9)” value in [11] (Rate 0.125 kg/ha), in series [11] (Rate 0.250 kg/ha) and in series [11] (Rate 0.500 kg/ha) was 9.0 in each case. Also, the MOOVA herbicidal rating in series […], PRESL. (Rate 0.125 kg/ha) was 9.0; in series […], PRESL. (Rate 0.250 kg/ha), 9.0; in series […], PRESL. (Rate 0.500 kg/ha), 9.0. The CYPIR herbicidal rating with CYPERUS IRIA (Rate 0.125 kg/ha), in the series with CYPERUS IRIA (Rate 0.250 kg/ha) and with CYPERUS IRIA (Rate 0.500 kg/ha) was 9.0 each time.
